Each block holds one compound with its values, some of them ahead of it.
Columns and labels:
[1] = test system: Rat Carrageenan-Induced Footpad Edema; assay: Rat Carrageenan-Induced Footpad Edema Test; format: in vivo, male Sprague Dawley rats; details: footpad volume 3 hours after carrageenan; for inhibition in vivo at 2 mg/kg / inhibition in vivo at 10 mg/kg / inhibition in vivo at 5 mg/kg: Rattus norvegicus, 3 h, read-out: PERCENT INHIBITION; for inhibition in vivo at 2 mg/kg / inhibition in vivo at 10 mg/kg: po; for inhibition in vivo at 2 mg/kg / inhibition in vivo at 10 mg/kg / PERCENT INHIBITION: PO; for inhibition in vivo at 5 mg/kg: iv, IV
cPLA2 = target: T1, cPLA2 (Homo sapiens, UniProt P47712); assay: Coumarin Assay (cPLA2 inhibition); format: biochemical; details: for inhibition at 0.6 µM: CONCENTRATION 0.6 micromolar; for inhibition at 0.7 µM: CONCENTRATION 0.7 micromolar; for inhibition at 1 µM: CONCENTRATION 1 micromolar; for inhibition at 0.9 µM: CONCENTRATION 0.9 micromolar; for inhibition at 3 µM: CONCENTRATION 3 micromolar; for inhibition at 3.8 µM: CONCENTRATION 3.8 micromolar; for inhibition at 2.2 µM: CONCENTRATION 2.2 micromolar; for inhibition at 1.8 µM: CONCENTRATION 1.8 micromolar
T1 sequence (P47712 1-749): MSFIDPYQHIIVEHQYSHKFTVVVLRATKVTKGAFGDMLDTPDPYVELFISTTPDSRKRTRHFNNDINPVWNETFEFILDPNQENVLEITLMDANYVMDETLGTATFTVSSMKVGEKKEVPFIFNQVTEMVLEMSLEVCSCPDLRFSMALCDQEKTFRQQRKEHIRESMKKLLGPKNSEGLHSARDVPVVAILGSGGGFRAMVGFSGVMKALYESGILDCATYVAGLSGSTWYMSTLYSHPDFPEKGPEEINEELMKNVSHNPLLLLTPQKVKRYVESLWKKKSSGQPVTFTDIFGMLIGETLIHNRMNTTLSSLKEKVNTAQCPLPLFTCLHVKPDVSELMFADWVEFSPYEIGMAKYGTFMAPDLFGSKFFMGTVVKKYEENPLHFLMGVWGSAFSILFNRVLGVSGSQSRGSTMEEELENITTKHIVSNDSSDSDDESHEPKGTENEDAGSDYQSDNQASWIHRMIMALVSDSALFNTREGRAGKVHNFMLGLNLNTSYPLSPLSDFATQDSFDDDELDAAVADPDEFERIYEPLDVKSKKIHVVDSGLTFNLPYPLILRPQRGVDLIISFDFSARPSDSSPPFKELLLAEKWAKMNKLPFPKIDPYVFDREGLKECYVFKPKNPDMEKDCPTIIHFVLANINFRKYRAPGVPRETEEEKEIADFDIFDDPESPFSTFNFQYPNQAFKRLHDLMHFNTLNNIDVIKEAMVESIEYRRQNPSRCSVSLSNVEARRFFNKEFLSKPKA
How it was run: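 Percent inhibition at the stated concentration, from the rate of 460 nm emission rise (360 nm excitation) per minute. Reaction started by adding 4 μg enzyme to compound and 60 μM 7-hydroxycoumarinyl 6-heptenoate in Hepes buffer pH 7.5 with 1 mM EDTA.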

[2] = CONCENTRATION 0.8 micromolar, read-out: PERCENT INHIBITION @
[3] = CONCENTRATION 2.5 micromolar, read-out: PERCENT INHIBITION @

- inhibition at 0.4 µM (cPLA2; CONCENTRATION 0.4 micromolar, read-out: PERCENT INHIBITION @): 50%
- inhibition at 0.5 µM (cPLA2; CONCENTRATION 0.5 micromolar, read-out: PERCENT INHIBITION @): 50%
- inhibition at 0.55 µM (cPLA2; CONCENTRATION 0.55 micromolar, read-out: PERCENT INHIBITION @): 50%
- inhibition at 0.65 µM (cPLA2; CONCENTRATION 0.65 micromolar, read-out: PERCENT INHIBITION @): 50%
Compound: COc1cc(C(=O)NS(=O)(=O)C(F)(F)F)ccc1Cc1cn(C(c2ccccc2)c2ccccc2)c2ccc([N+](=O)[O-])cc12 [Example 37, N-{4-[(1-benzhydryl-5-nitro-1H-indol-3-yl)methyl]-3-methoxybenzoyl}(trifluoro)methanesulfonamide]
- inhibition in vivo at 2 mg/kg ([1]; 2 mg/Kg): -7.94%
- inhibition in vivo at 10 mg/kg ([1]; 10 mg/Kg): 3.36%

- inhibition at 0.3 µM (cPLA2; CONCENTRATION 0.3 micromolar, read-out: PERCENT INHIBITION @): 50%
- inhibition at 0.45 µM (cPLA2; CONCENTRATION 0.45 micromolar, read-out: PERCENT INHIBITION @): 50%
- inhibition at 0.57 µM (cPLA2; CONCENTRATION 0.57 micromolar, read-out: PERCENT INHIBITION @): 50%
- inhibition at 0.59 µM (cPLA2; CONCENTRATION 0.59 micromolar, read-out: PERCENT INHIBITION @): 50%
- inhibition at 0.6 µM (cPLA2; read-out: PERCENT INHIBITION @): 50%
- inhibition at 0.64 µM (cPLA2; CONCENTRATION 0.64 micromolar, read-out: PERCENT INHIBITION @): 50%
- inhibition at 0.7 µM (cPLA2; read-out: PERCENT INHIBITION @): 50%
- inhibition at 0.85 µM (cPLA2; CONCENTRATION 0.85 micromolar, read-out: PERCENT INHIBITION @): 50%
- inhibition at 1 µM (cPLA2; read-out: PERCENT INHIBITION @): 50%
Compound: COc1cc(C(=O)NS(=O)(=O)c2ccccc2C)ccc1Cc1cn(C(c2ccccc2)c2ccccc2)c2ccc(Br)cc12 [Example 38, N-{4-[(1-benzhydryl-5-bromo-1H-indol-3-yl)methyl]-3-methoxybenzoyl}-2-methylbenzenesulfonamide]
- inhibition in vivo at 2 mg/kg ([1]; 2 mg/Kg): 15.4%
- inhibition in vivo at 10 mg/kg ([1]; 10 mg/Kg): 26.3%

- inhibition at 0.39 µM (cPLA2; CONCENTRATION 0.39 micromolar, read-out: PERCENT INHIBITION @): 50%
- inhibition at 0.7 µM (cPLA2; read-out: PERCENT INHIBITION @): 50%
- inhibition at 0.73 µM (cPLA2; CONCENTRATION 0.73 micromolar, read-out: PERCENT INHIBITION @): 50%
- inhibition at 0.75 µM (cPLA2; CONCENTRATION 0.75 micromolar, read-out: PERCENT INHIBITION @): 50%
- inhibition at 0.8 µM (cPLA2; [2]): 50%
- inhibition at 0.9 µM (cPLA2; read-out: PERCENT INHIBITION @): 50%
- inhibition at 1 µM (cPLA2; read-out: PERCENT INHIBITION @): 50%
- inhibition at 1.2 µM (cPLA2; CONCENTRATION 1.2 micromolar, read-out: PERCENT INHIBITION @): 50%
- inhibition at 1.3 µM (cPLA2; CONCENTRATION 1.3 micromolar, read-out: PERCENT INHIBITION @): 50%
- inhibition at 1.6 µM (cPLA2; CONCENTRATION 1.6 micromolar, read-out: PERCENT INHIBITION @): 50%
Compound: COc1cc(C(=O)NS(=O)(=O)C(F)(F)F)ccc1Cc1cn(C(c2ccccc2)c2ccccc2)c2ccc(Br)cc12 [Example 39, N-{4-[(1-benzhydryl-5-bromo-1H-indol-3-yl)methyl]-3-methoxybenzoyl}(trifluoro)methanesulfonamide]
- inhibition in vivo at 2 mg/kg ([1]; 2 mg/Kg): 1.98%
- inhibition in vivo at 10 mg/kg ([1]; 10 mg/Kg): -7.16%

- PERCENT INHIBITION @ (cPLA2; CONCENTRATION 2.5 micromolar): 55%
- inhibition at 2.5 µM (cPLA2; [3]): 50%
- inhibition at 3 µM (cPLA2; read-out: PERCENT INHIBITION @): 50%
- inhibition at 3.6 µM (cPLA2; CONCENTRATION 3.6 micromolar, read-out: PERCENT INHIBITION @): 50%
Compound: COc1cc(C(=O)NS(=O)(=O)C(F)(F)F)ccc1Cc1cn(C(c2ccccc2)c2ccccc2)c2ccc(NC(=O)C3CCCC3)cc12 [Example 40, N-{1-benzhydryl-3-[2-methoxy-4-({[(trifluoromethyl)sulfonyl]amino}carbonyl)benzyl]-1H-indol-5-yl}cyclopentanecarboxamide]
- inhibition in vivo at 5 mg/kg [1]: 8.21%

- inhibition at 2.5 µM (cPLA2; [3]): 50%
- inhibition at 3.8 µM (cPLA2; read-out: PERCENT INHIBITION @): 50%
- inhibition at 4.3 µM (cPLA2; CONCENTRATION 4.3 micromolar, read-out: PERCENT INHIBITION @): 50%
- inhibition at 5 µM (cPLA2; CONCENTRATION 5 micromolar, read-out: PERCENT INHIBITION @): 50%
Compound: COc1cc(C(=O)NS(=O)(=O)C(F)(F)F)ccc1Cc1cn(C(c2ccccc2)c2ccccc2)c2ccc(NS(C)(=O)=O)cc12 [Example 41, N-[4-({1-benzhydryl-5-[(methylsulfonyl)amino]-1H-indol-3-yl}methyl)-3-methoxybenzoyl](trifluoro)methanesulfonamide]
- inhibition in vivo at 5 mg/kg [1]: 10.1%

- inhibition at 2.2 µM (cPLA2; read-out: PERCENT INHIBITION @): 50%
- inhibition at 3 µM (cPLA2; read-out: PERCENT INHIBITION @): 50%
- inhibition at 3.8 µM (cPLA2; read-out: PERCENT INHIBITION @): 50%
Compound: CCCCNC(=O)Nc1ccc2c(c1)c(Cc1ccc(C(=O)NS(=O)(=O)C(F)(F)F)cc1OC)cn2C(c1ccccc1)c1ccccc1 [Example 42, N-{4-[(1-benzhydryl-5-{[(butylamino)carbonyl]amino}-1H-indol-3-yl)methyl]-3-methoxybenzoyl}(trifluoro)methanesulfonamide]
- inhibition in vivo at 5 mg/kg [1]: 7.72%

- inhibition at 1.75 µM (cPLA2; CONCENTRATION 1.75 micromolar, read-out: PERCENT INHIBITION @): 50%
- inhibition at 1.8 µM (cPLA2; read-out: PERCENT INHIBITION @): 50%
- inhibition at 1.9 µM (cPLA2; CONCENTRATION 1.9 micromolar, read-out: PERCENT INHIBITION @): 50%
- inhibition at 2 µM (cPLA2; CONCENTRATION 2 micromolar, read-out: PERCENT INHIBITION @): 50%
- inhibition at 2.1 µM (cPLA2; CONCENTRATION 2.1 micromolar, read-out: PERCENT INHIBITION @): 50%
- inhibition at 2.5 µM (cPLA2; [3]): 74%
Compound: COc1cc(C(=O)NS(=O)(=O)C(F)(F)F)ccc1Cc1cn(C(c2ccccc2)c2ccccc2)c2ccc(NS(=O)(=O)Cc3ccccc3)cc12 [Example 45, N-[4-({1-benzhydryl-5-[(benzylsulfonyl)amino]-1H-indol-3-yl}methyl)-3-methoxybenzoyl](trifluoro)methanesulfonamide]
- inhibition in vivo at 5 mg/kg [1]: 10.2%

- inhibition at 2.2 µM (cPLA2; read-out: PERCENT INHIBITION @): 50%
- inhibition at 2.5 µM (cPLA2; [3]): 67%
- inhibition at 2.7 µM (cPLA2; CONCENTRATION 2.7 micromolar, read-out: PERCENT INHIBITION @): 50%
- inhibition at 3.5 µM (cPLA2; CONCENTRATION 3.5 micromolar, read-out: PERCENT INHIBITION @): 50%
- inhibition at 4.5 µM (cPLA2; CONCENTRATION 4.5 micromolar, read-out: PERCENT INHIBITION @): 50%
Compound: COc1cc(C(=O)NS(=O)(=O)C(F)(F)F)ccc1Cc1cn(C(c2ccccc2)c2ccccc2)c2ccc(NC(=O)c3ccsc3)cc12 [Example 46, N-{1-benzhydryl-3-[2-methoxy-4-({[(trifluoromethyl)sulfonyl]amino}carbonyl)benzyl]-1H-indol-5-yl}-3-thiophenecarboxamide]
- inhibition in vivo at 5 mg/kg [1]: 4.58%

- inhibition at 1.5 µM (cPLA2; CONCENTRATION 1.5 micromolar, read-out: PERCENT INHIBITION @): 50%
- inhibition at 1.8 µM (cPLA2; read-out: PERCENT INHIBITION @): 50%
- inhibition at 2.3 µM (cPLA2; CONCENTRATION 2.3 micromolar, read-out: PERCENT INHIBITION @): 50%
Compound: COc1cc(C(=O)NS(=O)(=O)C(F)(F)F)ccc1Cc1cn(C(c2ccccc2)c2ccccc2)c2ccc(NC(=O)OCc3ccccc3)cc12 [Example 49, benzyl N-{1-benzhydryl-3-[2-methoxy-4-({[(trifluoromethyl)sulfonyl]amino}carbonyl)benzyl]-1H-indol-5-yl}carbamate]
- inhibition in vivo at 5 mg/kg [1]: 18%

Compound: O=C(O)c1ccc(Cc2cn(C(c3ccccc3)c3ccccc3)c3ccc([N+](=O)[O-])cc23)cc1 [Example 50, 4-[(-benzhydryl-5-nitro-1H-indol-3-yl)methyl]benzoic acid]
- PERCENT INHIBITION ([1]; 2 mg/Kg): 5.44%
- PERCENT INHIBITION ([1]; 10 mg/Kg): 12.34%
- PERCENT INHIBITION @ (cPLA2; CONCENTRATION 0.8 micromolar): 50%
- PERCENT INHIBITION @ (cPLA2; CONCENTRATION 0.85 micromolar): 50%
- PERCENT INHIBITION @ (cPLA2; CONCENTRATION 1.05 micromolar): 50%
- PERCENT INHIBITION @ (cPLA2; CONCENTRATION 2.5 micromolar): 81%

- inhibition at 0.6 µM (cPLA2; read-out: PERCENT INHIBITION @): 50%
- inhibition at 0.8 µM (cPLA2; [2]): 50%
- inhibition at 0.9 µM (cPLA2; read-out: PERCENT INHIBITION @): 50%
Compound: O=C(O)c1ccc(Cc2cn(C(c3ccccc3)c3ccccc3)c3ccc(Br)cc23)cc1 [Example 51, 4-[(1-benzhydryl-5-bromo-1H-indol-3-yl)methyl]benzoic acid]
- inhibition in vivo at 2 mg/kg ([1]; 2 mg/Kg): 3.23%
- inhibition in vivo at 10 mg/kg ([1]; 10 mg/Kg): 15.4%

— US6500853B1, “Inhibitors of phospholipase enzymes” (Genetics Institute, LLC, priority 1998, dated 2002)
